Melting point data for 34 compounds are collected here from a melting point compilation (Tetko et al.; mined from patent text by program, amines drawn as free bases though some values may be those of a salt).

As a reminder, the melting point is the temperature, or range, at which the solid turns liquid. `COc1ccc(-c2[nH]c(-c3cccc4ccccc34)nc2C(=O)Nc2nccs2)cc1` gave a melting point of 198 to 200 °C.

As for `CC(=O)Nc1ccc(C)cc1Oc1c([N+](=O)[O-])cc(C(=O)O)cc1S(N)(=O)=O`, the melting point was in the range of 238 to 240 °C.

`CCOC(=O)C1=C(COCC2CO2)NC(C)=C(C(=O)OC)C1c1cccc(Cl)c1Cl` (centres undefined) yielded a melting point of 103 to 104 °C.

`COc1ccc(N2CCN(C3CN(C4c5c(C)cc(C)c(C)c5OC4(C)C)CCN3c3ccccc3)CC2)cc1` (centres undefined) returned a melting point of 144 to 145 °C.

`CC1C2=C(CN=C(c3ccccc3Cl)c3cc(Cl)ccc32)C(=O)N1CC(N)=O` (centres undefined) had a melting point of 221 to 222 °C.

In turn, `COC(=O)c1cc(C(=O)N2COCC2(C)C)c2cc(Cc3ccc(F)cc3)cnc2c1O` came in with a melting point of 149 to 150 °C.

Compound `CCC(=O)NCc1c[nH]c2ccccc12` displayed a melting point of 91 to 92 °C.

`COc1ccc2c(Cl)nncc2c1`: the melting point was 181 to 183 °C.

`COc1cc2c(cc1C(F)(F)F)N(C(=O)Nc1cncc(Br)c1)CC2`: the melting point lay in the range of 220 to 222 °C.

The compound `CC(C)C[C@H](NC(=O)[C@@H](N)Cc1c[nH]cn1)[C@@H](O)c1nccs1` displayed a melting point of 118 to 126 °C.

For the compound `O=C(NC1CC1)c1ccc(N2CCN(Cc3cnc4c(c3)[nH]c(=O)n3cccc43)CC2)cc1`, the melting point lay within 270 to 272 °C.

In turn, `ClCCCOc1cccc2c(OCCCCl)cccc12` came in with a melting point of 219 °C.

With `CCCSc1ccc(C(=O)OC)nc1`, the melting point was 33 to 35 °C.

In turn, `CC(C)(C)OC(=O)[C@H]1CC[C@@H](c2ccccc2)N1C(=O)CNC(=O)Nc1cccc(CO)c1` (racemic) came in with a melting point of 168 °C.

`CS(=O)(=O)Nc1ccc(OC2CCCC2)cc1` returned a melting point of 140 to 142 °C.

On to `CN(C)C=Nc1sc(C=O)c(S(=O)(=O)c2ccccc2)c1C#N`, for which the melting point is 262 °C.

The compound `COC(=O)C1=Cc2cc(-c3ccc4c(c3)OCO4)ccc2S(=O)(=O)CC1` returned a melting point of 185 to 187 °C.

With `N=C(Nc1cc(Cl)cc(NC(=O)/C=C/c2ccccc2C(F)(F)F)c1)c1ccccc1F`, the melting point was in the range of 209 to 210 °C.

Turning to `CCOc1ccc(-c2nc(CCC(=O)c3ncccc3OC)cs2)cc1OCC`, the melting point was 79.2 to 79.7 °C.

Compound `CCCCCCCCCCCCCCC[C@H]1O[C@@H]1CO` yielded a melting point of 77 to 78 °C.

With `CC(C)C(=O)NCc1ccc(NC(=O)/C=C/c2cnn(C)c2-c2ccc(F)cc2)cc1`, the melting point lay within 258 to 259 °C.

`CCOc1cc2c(cc1S(=O)(=O)NC(=S)NC)C(CNC(=O)c1cc(Cl)ccc1OC)CCO2` (centres undefined) registered a melting point of 202 °C.

Turning to `CCc1ccc(C2CCC(c3ccc(Oc4ccc([N+](=O)[O-])cc4)cc3)(c3ccc(Oc4ccc([N+](=O)[O-])cc4)cc3)CC2)cc1`, the melting point lay within 204 to 205 °C.

Compound `Nc1ccn(C2CCCO2)c(=O)n1` (centres undefined) returned a melting point of 193 to 195 °C.

For the compound `Cc1nc(-c2ccc(C(=O)N3Cc4cccn4Cc4ccccc43)cc2)n(C)n1`, the melting point was in the range of 193 to 195 °C.

Regarding `CCCCCCCCCCOc1cc(OCCCCCCc2cccc(O)c2O)cc(C(=O)OC)c1`, the melting point lay in the range of 71 to 72 °C.

On to `COc1nc(OC)c(C(C)C)c(C(=O)c2cc(Cl)cc(Cl)c2)n1`, for which the melting point is 120 to 121 °C.

For the compound `CN(C(=O)C(Cc1c[nH]c2ccccc12)NC(=O)OC(C)(C)C(Cl)(Cl)Cl)C(Cc1ccccc1)C(N)=O` (racemic), the melting point was in the range of 100 to 105 °C.

The compound `Cn1ccc2cc(NC(=O)Oc3ccccc3)ccc21` gave a melting point of 103 to 107 °C.

Regarding `CN1C(=O)CCC2(C)c3ccc(Sc4ccncc4)cc3CCC12` (single isomer, unassigned; (+)), the melting point fell in the range of 157 to 158 °C.

In turn, `CS(=O)(=O)NC1CCC(NC(=O)Nc2ccc(C(F)(F)F)cc2)CC1` (centres undefined) returned a melting point of 237 to 239 °C.

`COc1cc(C=O)ccc1OCc1nc(N2CCOCC2)sc1C` returned a melting point of 127 to 128 °C.

In turn, `Cc1c(C(=O)O)ccc(Cl)c1O` displayed a melting point of 191 °C.

As for `COC(=O)C1C=CCn2c(=O)n(CSC(C)=O)c(=O)n21` (centres undefined), the melting point was in the range of 110 to 111 °C.
